Experiments:
[1] = tested on: anthracnose (Colletotrichum acutatum), naturally infected plants; assay: Example 2: pre-plant dip of naturally infected strawberry plants (Nursery 2), field trial; type: in vivo; conditions: cv. Portola (Nursery 2); for DI: Disease incidence (average) / DS: Disease severity, by ranking (average) 0-4 / LSI: Leaf spot incidence (average): after four weeks; for W: Weight (average) / Y: Yield (average): after six weeks
[2] = tested on: azoxystrobin (QoI)-resistant (R) strains of Colletotrichum acutatum; assay: Example 2: pre-plant dip of strawberry plants inoculated with azoxystrobin-resistant isolate, field trial; type: in vivo; conditions: for DI: Disease incidence (average) / DS: Disease severity, by ranking (average) 0-4: after four weeks; for W: Weight (average) / Y: Yield (average): after six weeks
[3] = tested on: azoxystrobin (QoI)-sensitive (S) strains of Colletotrichum acutatum; assay: Example 2: pre-plant dip of strawberry plants inoculated with azoxystrobin-sensitive isolate, field trial; type: in vivo; conditions: for DI: Disease incidence (average) / DS: Disease severity, by ranking (average) 0-4: after four weeks; for W: Weight (average) / Y: Yield (average): after six weeks
[4] = tested on: strawberry plants (two plant cultivars); conditions: in vivo
Method: Plants were evaluated periodically for disease and phytotoxicity over the course of the trial. As plants develop disease symptoms, fungal isolations were done from diseased tissue to validate the symptoms as anthracnose. For this, pieces of crown and leaf tissues from the margins between diseased and healthy tissue were surface-sterilized with sodium hypochlorite and rinsed with sterile, distilled water. A small sample of this plant tissue was removed, cut into pieces, and plated onto 10-cm potato dextrose agar media plates amended with ampicillin and rifampicin to inhibit bacterial growth. Plates were incubated for 5-6 days at 25° C., and fungal colonies were identified using morphological characteristics. A subset of fungal colonies was confirmed by PCR using species-specific primers for Colletotrichum acutatum (Förster and Adaskaveg, Phytopathology (1999) 89 1056-1065).

[5] = tested on: mixture of four Colletotrichum acutatum isolates, two sensitive and two resistant to QoI fungicides; assay: Example 3: dip treatments on Florida Radiance transplants for control of Colletotrichum acutatum; type: in vivo; conditions: cv. Florida Radiance; for Plant diameter / Plant diameter compared to the non-treated control (in words): 35 DAP; for Yield (marketable fruit): seven harvests
Colletotrichum acutatum = assay: Example 1: pre-plant dip of cv. Portola baby strawberry plants with natamycin, fruit yield after 6 weeks; type: in vivo
Method: Baby strawberry plants of cv. Portola were either inoculated or non-inoculated (naturally infected). Inoculation was done by dipping plants for 4 minutes in conidial suspensions of Colletotrichum acutatum, and then drip-dried. Plants were then stored for 8 h at 20° C., or 3 days at 5° C. […] The plants were then planted in different rows for each treatment, one feet apart and the yield was evaluated for fruit yield after 6 weeks. See below Table 1 for results.

[6] = tested on: fungi within the Ascomycota (e.g. Botrytis and Colletotrichum spp.) and Zygomycota (e.g. Rhizopus stolonifer); conditions: for most of these organisms; cited from earlier work
[7] = 4 min dip, rates/150 gal: Actinovate 24 oz., azoxystrobin 8 fl. oz., Bravo 24 fl. oz., Switch 8 oz.
[8] = rates/150 gal: Actinovate 24 oz., azoxystrobin 8 fl. oz., Bravo 24 fl. oz., Switch 8 oz.
[9] = cv. Fronteras (Nursery 1), 4 min dip, rates/150 gal: Actinovate 24 oz., azoxystrobin 8 fl. oz., Bravo 24 fl. oz., Switch 8 oz.
[10] = cv. Fronteras (Nursery 1), rates/150 gal: Actinovate 24 oz., azoxystrobin 8 fl. oz., Bravo 24 fl. oz., Switch 8 oz.
[11] = cv. Portola (Nursery 1), 4 min dip, rates/150 gal: Actinovate 24 oz., azoxystrobin 8 fl. oz., Bravo 24 fl. oz., Switch 8 oz.
[12] = cv. Portola (Nursery 1), rates/150 gal: Actinovate 24 oz., azoxystrobin 8 fl. oz., Bravo 24 fl. oz., Switch 8 oz.
[13] = natamycin 13.3 oz. per 150 gal.
[14] = natamycin 26.6 oz. per 150 gal.
[15] = cv. Fronteras (Nursery 1), natamycin 13.3 oz. per 150 gal.
[16] = cv. Fronteras (Nursery 1), natamycin 26.6 oz. per 150 gal.
[17] = cv. Portola (Nursery 1), natamycin 13.3 oz. per 150 gal.
[18] = cv. Portola (Nursery 1), natamycin 26.6 oz. per 150 gal.
[19] = natamycin 26.6 fl. oz./100 gal. (dipped in the field)
[20] = natamycin 26.6 fl. oz./100 gal. (dipped indoors to avoid sunlight)

Compound: CO/C=C(/C(=O)OC)c1ccccc1Oc1cc(Oc2ccccc2C#N)ncn1 [Azoxystrobin]
- DI: Disease incidence (average) [1, 7]: 41.7%
- DS: Disease severity, by ranking (average) 0-4 [1, 7]: 0.5
- LSI: Leaf spot incidence (average) [1, 7]: 0.5 number of spots
- W: Weight (average) [1, 8]: 9.8 g per fruit
- Y: Yield (average) [1, 8]: 1114.8 g per treated plot
- DI: Disease incidence (average) [2, 9]: 100.0%
- DS: Disease severity, by ranking (average) 0-4 [2, 9]: 2.9
- W: Weight (average) [2, 10]: 7.9 g per fruit
- Y: Yield (average) [2, 10]: 16.4 g per treated plot
- DI: Disease incidence (average) [2, 11]: 100.0%
- DS: Disease severity, by ranking (average) 0-4 [2, 11]: 4.0
- W: Weight (average) [2, 12]: 0.0 g per fruit
- Y: Yield (average) [2, 12]: 0.0 g per treated plot
- DI: Disease incidence (average) [3, 9]: 7.5%
- DS: Disease severity, by ranking (average) 0-4 [3, 9]: 0.2
- W: Weight (average) [3, 10]: 10.68 g per fruit
- Y: Yield (average) [3, 10]: 378.1 g per treated plot
- DI: Disease incidence (average) [3, 11]: 33.1%
- DS: Disease severity, by ranking (average) 0-4 [3, 11]: 0.8
- W: Weight (average) [3, 12]: 6.4 g per fruit
- Y: Yield (average) [3, 12]: 157.7 g per treated plot

Compound: C[C@@H]1C/C=C/C=C/C=C/C=C/[C@H](O[C@@H]2O[C@H](C)[C@@H](O)[C@H](N)[C@@H]2O)C[C@@H]2O[C@](O)(C[C@@H](O)C[C@H]3O[C@@H]3/C=C/C(=O)O1)C[C@H](O)[C@H]2C(=O)O [Natamycin, natamycin]
- DI: Disease incidence (average) [1, 13]: 57.5%
- DS: Disease severity, by ranking (average) 0-4 [1, 13]: 0.9
- LSI: Leaf spot incidence (average) [1, 13]: 0.6 number of spots
- DI: Disease incidence (average) [1, 14]: 53.7%
- DS: Disease severity, by ranking (average) 0-4 [1, 14]: 0.7
- LSI: Leaf spot incidence (average) [1, 14]: 0.4 number of spots
- W: Weight (average) [1, 13]: 8.7 g per fruit
- Y: Yield (average) [1, 13]: 714.4 g per treated plot
- W: Weight (average) [1, 14]: 8.7 g per fruit
- Y: Yield (average) [1, 14]: 742.5 g per treated plot
- phytotoxicity [4]: no phytotoxicity is observed
- DI: Disease incidence (average) [2, 15]: 37.5%
- DS: Disease severity, by ranking (average) 0-4 [2, 15]: 0.8
- DI: Disease incidence (average) [2, 16]: 54.2%
- DS: Disease severity, by ranking (average) 0-4 [2, 16]: 1.3
- W: Weight (average) [2, 15]: 8.9 g per fruit
- Y: Yield (average) [2, 15]: 261.7 g per treated plot
- W: Weight (average) [2, 16]: 9.3 g per fruit
- Y: Yield (average) [2, 16]: 145.2 g per treated plot
- DI: Disease incidence (average) [2, 17]: 82.5%
- DS: Disease severity, by ranking (average) 0-4 [2, 17]: 2.2
- DI: Disease incidence (average) [2, 18]: 29.4%
- DS: Disease severity, by ranking (average) 0-4 [2, 18]: 0.4
- W: Weight (average) [2, 17]: 7.9 g per fruit
- Y: Yield (average) [2, 17]: 112.4 g per treated plot
- W: Weight (average) [2, 18]: 8.6 g per fruit
- Y: Yield (average) [2, 18]: 235.0 g per treated plot
- efficacy when plants are inoculated with azoxystrobin-resistant isolates (in words) ([2]; pre-plant dip): very effective
- Plant diameter [5, 19]: 5.7 bcd in
- Plant diameter [5, 20]: 5.9 abc in
- Plant diameter compared to the non-treated control (in words) ([5]; natamycin dipped in the field: excepted from the treatments that significantly increased plant diameter): With the exception of natamycin (dipped in the field)
- Plant diameter compared to the non-treated control (in words) ([5]; natamycin: treatment dipped indoors): significantly increased plant diameter
- Disease incidence (diseased plants, dead+wilted) ([5]; 42 DAP, natamycin 26.6 fl. oz./100 gal. (dipped in the field)): 2.5 de %
- Disease incidence (diseased plants, dead+wilted) ([5]; 42 DAP, natamycin 26.6 fl. oz./100 gal. (dipped indoors to avoid sunlight)): 0.0 e %
- Disease incidence (diseased plants, dead+wilted) ([5]; 42 DAP, natamycin 26.6 fl. oz./100 gal. (dipped indoors to avoid sunlight), listed as natamycin): 0.0%
- Disease incidence compared to the non-treated control (in words) ([5]; 42 DAP, natamycin: both treatments (field and indoors)): reduced disease incidence compared to the non-treated control
- Yield compared to the non-treated control (in words) ([5]; natamycin: dipped in the field): higher yields than the non-treated control
- Yield (marketable fruit) [5, 19]: 2924 abc lb./A
- Yield (marketable fruit) [5, 20]: 2547 bcde lb./A
- Average weight per individual strawberry (Colletotrichum acutatum; natamycin 13.3 oz./150 gallon): 8.7 g
- Average weight per individual strawberry (Colletotrichum acutatum; natamycin 26.6 oz./150 gallon): 8.7 g
- DI: Disease incidence (average) [3, 15]: 37.5%
- DS: Disease severity, by ranking (average) 0-4 [3, 15]: 0.8
- DI: Disease incidence (average) [3, 16]: 32.5%
- DS: Disease severity, by ranking (average) 0-4 [3, 16]: 0.6
- W: Weight (average) [3, 15]: 8.14 g per fruit
- Y: Yield (average) [3, 15]: 161.8 g per treated plot
- W: Weight (average) [3, 16]: 8.31 g per fruit
- Y: Yield (average) [3, 16]: 161.1 g per treated plot
- DI: Disease incidence (average) [3, 17]: 32.5%
- DS: Disease severity, by ranking (average) 0-4 [3, 17]: 0.8
- DI: Disease incidence (average) [3, 18]: 27.5%
- DS: Disease severity, by ranking (average) 0-4 [3, 18]: 0.4
- W: Weight (average) [3, 17]: 7.9 g per fruit
- Y: Yield (average) [3, 17]: 224.1 g per treated plot
- W: Weight (average) [3, 18]: 7.0 g per fruit
- Y: Yield (average) [3, 18]: 188.4 g per treated plot
- minimum inhibitory concentration [6]: < 10 ppm

— patent US10881099B2, “Process to improve crop yield” (priority 2016, dated 2021)
